In US20230026616A1, “PYRIMIDOIMIDAZOLE COMPOUNDS USED AS DNA-PK INHIBITORS” (MEDSHINE DISCOVERY INC., priority 2019, published 2023):

Legend:
[1] = system: human non-small cell lung cancer NCI-H1703 cell subcutaneous xenograft tumor; test: In vivo pharmacodynamics, NCI-H1703 subcutaneous xenograft tumor model; design: species or system BALB/c nude mice; details: for Tumor volume (Day 0): Day 0 (baseline), Mean ± SEM; for Tumor volume (Day 21): Day 21, Mean ± SEM; for T/Cweight: day 21; for Tumor weight (PG-D21): day 21, Mean ± SEM
Protocol: Experimental purpose: To study the in vivo pharmacodynamics of the test compounds in BALB/c nude mice model with human non-small cell lung cancer NCI-H1703 cell subcutaneous xenograft tumor
Experimental animals: Female BALB/c nude mice, 6-8 weeks old, weighing 18-22 grams; supplier: Shanghai Sippe-Bk Lab Animal Co., Ltd.
Human non-small cell lung cancer NCI-H1703 cells were cultured in vitro in RPMI1640 medium with 10% fetal bovine serum, 100 U/mL penicillin and 100 μg/mL streptomycin at 37° C. in a 5% CO2 incubator. Conventional digestion with trypsin-EDTA was performed twice a week for passage. When the cell saturation was 80%-90% and the number reached the requirement, the cells were collected, counted, and seeded.
0.2 mL (5×10^6 cells) NCI-H1703 cells (added with matrigel, volume ratio of 1:1) were subcutaneously inoculated into the right back of each mouse, and the group administration started when the average tumor volume reached about 130 mm^3.
Compound 5 was prepared into 3 mg/mL, 6 mg/mL, 9 mg/mL suspension solutions, and compound 17 was prepared into 9 mg/mL suspensions, and the solvent was 0.5% HPMC+1% Tween 80.
Tumor diameters were measured with vernier calipers twice a week. The calculation formula of tumor volume is: V=0.5a×b^2, wherein a and b represent the long and short diameters of the tumor, respectively.
The antitumor efficacy of the compounds was evaluated by TGI (%) or relative tumor proliferation rate T/C (%). Relative tumor proliferation rate T/C (%)=TRTV/CRTV×100% (TRTV: means RTV in the treatment group; CRTV: means RTV in the negative control group). The relative tumor volume (RTV) was calculated according to the results of tumor measurement. The calculation formula is RTV=Vt/V0, wherein V0 is the tumor volume measured at the time of group administration (i.e., day 0), and Vt is the tumor volume at one measurement. Data of the same day was taken for TRTV and CRTV.
TGI (%), reflecting tumor growth inhibition rate. TGI (%)=[1−(average tumor volume at the end of administration of a certain treatment group-average tumor volume at the beginning of administration of this treatment group)/(average tumor volume at the end of treatment in the solvent control group-average volume at the beginning of treatment in the solvent control group tumor volume)]×100%. After the experiment, the tumor weight was detected, and the T/weight percentage was calculated. T weight and C weight represent the tumor weight of the administration group and the solvent control group, respectively.
Statistical analysis was performed using SPSS software based on RTV data at the end of the experiment. […] T-test was used to analyze the comparison between two groups, and one-way ANOVA was used to analyze the comparison between three or more groups. If the variance was homogeneous (F value had no significant difference), Tukey's method was used for analysis. If the variance was not homogeneous (F value had significant difference), the Games-Howell method was used to test. p<0.05 was considered a significant difference.

[2] = Pharmacokinetic evaluation in mice (2), plasma; type: in vivo, Balb/c male mice
Excerpt: (§1) IV: intravenous injection; PO: oral; C0: instantaneous […] concentration after intravenous injection; Cmax: highest plasma concentration after administration; Tmax: time required to reach peak of drug concentration after administration; T1/2: time required for the plasma drug concentration to decrease by half, Vdss: apparent volume of distribution, refers to the proportional constant of the drug dose in vivo and the blood drug concentration when the drug reaches a dynamic equilibrium in vivo. Cl: clearance rate, refers to the […] cleared from the body per unit time; Tlast: time at the last detection point; AUC0-last: area under the drug-time curve, refers to the area covered by the plasma concentration curve and the time axis; F: a measure of the speed and degree of drug absorption into the blood circulation, which is an important indicator for evaluating the degree of drug absorption.
Test compounds were mixed with […]/50% polyethylene glycol 200/40% water, vortexed and sonicated to prepare a nearly clear solution of 0.4 mg/mL (compound 5), then filtered through a microporous membrane for next step. Balb/c male mice of 18 to 20 grams were selected and administered intravenously with the candidate compound solution at a dose of 2 mg/kg. Test compounds were mixed with 10% dimethyl sulfoxide/50% polyethylene glycol 200/40% water, vortexed and sonicated to prepare a nearly clear solution of 1 mg/mL, then filtered with a microporous membrane for next step. Balb/c male mice of 18 to 20 grams were selected and orally administered with the candidate compound solution at a dose of 10 mg/kg. Whole blood was collected for a certain period of time, and plasma was prepared, then drug concentration was detected by LC-MS/MS method, and pharmacokinetic parameters were calculated by Phoenix WinNonlin software (Pharsight, USA).

[3] = Pharmacokinetic evaluation in cynomolgus monkeys; type: in vivo, Male cynomolgus monkeys
Excerpt: as §1
Test compound was mixed with 10% dimethyl sulfoxide/50% polyethylene glycol 200/40% water, vortexed and sonicated to prepare a nearly clear solution of 1 mg/mL, then filtered through a microporous membrane for next step. Male cynomolgus monkeys were selected and administered intravenously with the candidate compound solution at a dose of 1 mg/kg. Test compound was mixed with 10% dimethyl sulfoxide/50% polyethylene glycol 200/40% water, vortexed and sonicated to prepare a nearly clear solution of 1 mg/mL, then filtered with a microporous membrane for next step. Male cynomolgus monkeys were selected and orally administered with the candidate compound solution at a dose of 5 mg/kg. Whole blood was collected for a certain period of time, and plasma was prepared, then drug concentration was detected by LC-MS/MS method, and pharmacokinetic parameters were calculated by Phoenix WinNonlin software (Pharsight, USA).

[4] = male, Balb/c, 2 mg/kg, mouse plasma, IV 2 mpk
[5] = male, Balb/c, 10 mg/kg, mouse plasma, PO 10 mpk
[6] = male, 1 mg/kg, cynomolgus monkey plasma, IV 1 mpk
[7] = male, 5 mg/kg, cynomolgus monkey plasma, PO 5 mpk

SMILES: Cc1cc2nncn2cc1Nc1ncc2c(n1)n(N1CC3CCC(C1)O3)c(=O)n2C [Compound 17]
- Tumor volume (Day 0) ([1]; 90 mg/kg twice a day): 130 ± 13 mm^3
- RTV (Day 21) ([1]; 90 mg/kg twice a day): 3.19 ± 0.46
- T/C (%) (Day 21) ([1]; 90 mg/kg twice a day): 33.4%
- TGI (%) (Day 21) ([1]; 90 mg/kg twice a day): 71.6%
- Tumor volume (Day 21) ([1]; 90 mg/kg twice a day): 435 ± 94 mm^3
- T/Cweight ([1]; 90 mg/kg): 35.9%
- Tumor weight (PG-D21) ([1]; 90 mg/kg): 0.466 ± 0.103 g
- tumor inhibitory effect compared with the blank control (in words) ([1]; 90 mg/kg, dosed twice a day): significant tumor inhibitory effect

SMILES: Cc1cc2ncnn2cc1Nc1ncc2c(n1)n(N1CC3CCC(C1)O3)c(=O)n2C [Compound 5]
- Tumor volume (Day 0) ([1]; 30 mg/kg twice a day): 131 ± 10 mm^3
- RTV (Day 21) ([1]; 30 mg/kg twice a day): 7.57 ± 0.53
- T/C (%) (Day 21) ([1]; 30 mg/kg twice a day): 79.3%
- TGI (%) (Day 21) ([1]; 30 mg/kg twice a day): 20.6%
- Tumor volume (Day 21) ([1]; 30 mg/kg twice a day): 979 ± 86 mm^3
- tumor inhibitory effect compared with the blank control (in words) ([1]; 30 mg/kg, administered twice a day): certain tumor inhibitory effect
- T/Cweight ([1]; 30 mg/kg): 79.6%
- Tumor weight (PG-D21) ([1]; 30 mg/kg): 1.031 ± 0.095 g
- Tumor volume (Day 0) ([1]; 60 mg/kg twice a day): 131 ± 10 mm^3
- RTV (Day 21) ([1]; 60 mg/kg twice a day): 3.31 ± 0.51
- T/C (%) (Day 21) ([1]; 60 mg/kg twice a day): 34.7%
- TGI (%) (Day 21) ([1]; 60 mg/kg twice a day): 72.3%
- Tumor volume (Day 21) ([1]; 60 mg/kg twice a day): 427 ± 64 mm^3
- T/Cweight ([1]; 60 mg/kg): 36.0%
- Tumor weight (PG-D21) ([1]; 60 mg/kg): 0.467 ± 0.078 g
- tumor inhibitory effect compared with the blank control (in words) ([1]; 60 mg/kg, dosed twice a day): significant tumor inhibitory effect
- Tumor volume (Day 0) ([1]; 90 mg/kg twice a day): 130 ± 10 mm^3
- RTV (Day 21) ([1]; 90 mg/kg twice a day): 2.64 ± 0.45
- T/C (%) (Day 21) ([1]; 90 mg/kg twice a day): 27.7%
- TGI (%) (Day 21) ([1]; 90 mg/kg twice a day): 79.4%
- Tumor volume (Day 21) ([1]; 90 mg/kg twice a day): 351 ± 64 mm^3
- T/Cweight ([1]; 90 mg/kg): 29.2%
- Tumor weight (PG-D21) ([1]; 90 mg/kg): 0.379 ± 0.069 g
- tumor inhibitory effect compared with the blank control (in words) ([1]; 90 mg/kg, dosed twice a day): significant tumor inhibitory effect
- dose dependence of the therapeutic effect ([1]; 30, 60, 90 mg/kg twice a day): dose-dependent
- AUC(0-t) [2, 4]: 3.45 µM·h
- C0 [2, 4]: 4.74 µM
- clearance [2, 4]: 23.7 mL/min/kg
- half-life [2, 4]: 44 min
- Vd ([2]; male, Balb/c, 2 mg/kg, mouse plasma, IV 2 mpk, read-out: Vdss): 1.07 L/kg
- AUC(0-t) [2, 5]: 23.2 µM·h
- Cmax [2, 5]: 11.4 µM
- Tmax [2, 5]: 30 min
- half-life [2, 5]: 51 min
- Tlast ([2]; mouse plasma, IV 2 mpk): 8 h
- Tlast ([2]; mouse plasma, PO 10 mpk): 10 h
- F ([2]; mouse, PO 10 mpk vs IV 2 mpk): 134%
- Tlast ([3]; cynomolgus monkey plasma, PO 5 mpk): 12 h
- F ([3]; cynomolgus monkey, PO 5 mpk vs IV 1 mpk): 115%
- AUC(0-t) [3, 6]: 2.44 µM·h
- C0 [3, 6]: 2290 nM
- clearance [3, 6]: 16.8 mL/min/kg
- half-life [3, 6]: 216 min
- Vd ([3]; male, 1 mg/kg, cynomolgus monkey plasma, IV 1 mpk, read-out: Vdss): 1.52 L/kg
- AUC(0-t) [3, 7]: 14 µM·h
- Cmax [3, 7]: 4.5 µM
- Tmax [3, 7]: 1.17 h
- half-life [3, 7]: 81 min
